In patent US20070276011A1, “Plasminogen Activator Inhibitor-1 Inhibitor” (priority 2003, published 2007):

Each molecule was assayed against recombinant human PAI-1 (Homo sapiens, UniProt P05121) (assay: PAI-1 inhibitory activity, Test Method A (tPA fluorogenic substrate, Tris buffer pH8.0, 37 C)). Settings: 25 μM test compound; Test Method A.
Type: biochemical

recombinant human PAI-1, sequence (P05121 24-402): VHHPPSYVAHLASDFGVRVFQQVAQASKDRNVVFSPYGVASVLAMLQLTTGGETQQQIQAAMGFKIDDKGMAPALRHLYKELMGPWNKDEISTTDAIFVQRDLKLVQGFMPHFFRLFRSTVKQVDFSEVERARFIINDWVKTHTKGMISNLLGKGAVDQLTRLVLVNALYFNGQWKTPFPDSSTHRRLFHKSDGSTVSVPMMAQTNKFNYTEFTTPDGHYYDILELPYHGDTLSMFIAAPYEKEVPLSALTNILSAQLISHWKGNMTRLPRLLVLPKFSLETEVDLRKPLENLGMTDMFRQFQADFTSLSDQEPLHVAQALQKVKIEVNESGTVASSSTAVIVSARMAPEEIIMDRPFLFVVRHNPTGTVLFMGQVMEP

Row | Structure (SMILES) | Inhibitory Ratio at 25 μM (%)
1 | O=C(Nc1ccc(O)c(O)c1)c1cc(C=C2SC(=O)N(Cc3ccc([N+](=O)[O-])cc3)C2=O)ccc1O [compound 378] | 86
2 | CC(C)C1=NN(c2cc(Cl)cc(Cl)c2)C(=O)C1=Cc1cc(O)c(O)cc1Br [compound 556, 4-(2-Bromo-4,5-dihydroxybenzylidene)-1-(3,5-dichlorophenyl)-3-isopropyl-2-pyrazolin-5-one] | >99
3 | O=C(Nc1cc(C(F)(F)F)cc(C(F)(F)F)c1)c1cc(C=C2SC(=O)N(Cc3ccc(Cl)c(Cl)c3)C2=O)ccc1O [compound 404] | >99
4 | COc1ccc(NC(=O)c2cc(C=C3SC(=O)N(Cc4ccc(Cl)c(Cl)c4)C3=O)cc(OC)c2O)cc1C(F)(F)F [compound 360] | >99
5 | COc1ccc(NC(=O)c2cc(C=C3SC(=O)N(Cc4cc(F)cc(F)c4)C3=O)ccc2O)cc1OC [compound 385, 5-[4-Hydroxy-3-(3,4-dimethoxyphenylcarbamoyl)benzylidene]-3-(3,5-difluorobenzyl)thiazolidine-2,4-dione] | >99
6 | COC(=O)c1cc(C=C2SC(=O)N(Cc3ccc(Cl)c(Cl)c3)C2=O)cc(OC)c1O [compound 343, 5-[3-methoxy-4-hydroxy-5-(methoxycarbonyl)benzylidene]-3-(3,4-dichlorobenzyl)thiazolidine-2,4-dione] | 71
7 | COc1ccc(NC(=O)c2cc(C=C3SC(=O)N(Cc4ccc(Cl)cc4Cl)C3=O)ccc2O)cc1OC [compound 397, 5-[4-Hydroxy-3-(3,4-dimethoxyphenylcarbamoyl)benzylidene]-3-(2,4-dichlorobenzyl)thiazolidine-2,4-dione] | >99
8 | O=C(Nc1cc(C(F)(F)F)ccc1Oc1ccc(O)cc1)c1cc(C=C2SC(=O)N(Cc3ccc(Cl)c(Cl)c3)C2=O)ccc1O [compound 422] | 95
9 | COCC1=NN(c2cc(Cl)cc(Cl)c2)C(=O)C1=Cc1cc(O)c(O)cc1O [compound 522] | >99
10 | O=C(Nc1ccc(O)c(O)c1)c1cc(C=C2SC(=O)N(Cc3cc(C(F)(F)F)ccc3C(F)(F)F)C2=O)ccc1O [compound 374] | >99
11 | COc1ccc(C(C)(C)C)cc1NC(=O)c1cc(C=C2SC(=O)N(Cc3ccc(Cl)c(Cl)c3)C2=O)ccc1O [compound 467] | >99
12 | O=C(Nc1ccc2c(c1)OCO2)c1cc(C=C2SC(=O)N(Cc3ccc(Cl)c(Cl)c3)C2=O)cc(O)c1O [compound 474] | 82
13 | CC(C)C1=NN(c2cc(Cl)cc(Cl)c2)C(=O)C1=Cc1c[nH]cn1 [compound 508] | 26
14 | CC(C)C1=NN(Cc2ccc(Cl)c(Cl)c2)C(=O)C1=Cc1cc(O)c(O)cc1O.N=C(N)NCCC[C@H](N)C(=O)O.N=C(N)NCCC[C@H](N)C(=O)O.N=C(N)NCCC[C@H](N)C(=O)O [compound 553, tri(L-(+)-arginine) salt of 4-(2,4,5-trihydroxybenzylidene)-1-(3,4-dichlorobenzyl)-3-isopropyl-2-pyrazolin-5-one] | >99
15 | O=C(Nc1cccc(OC(F)(F)F)c1)c1cc(C=C2SC(=O)N(Cc3ccc(Cl)c(Cl)c3)C2=O)ccc1O [compound 414] | 91
16 | CCOC1=NN(c2ccc([N+](=O)[O-])cc2)C(=O)C1=Cc1c(O)cccc1OC [compound 550, 4-(2-hydroxy-6-methoxybenzylidene)-1-(4-nitrophenyl)-3-ethoxy-2-pyrazolin-5-one] | 66

Now from value to molecule:

Row | Inhibitory Ratio at 25 μM (%) | Structure (SMILES)
17 | 94 | CC(C)c1ccc(NC(=O)c2cc(C=C3SC(=O)N(Cc4ccc(Cl)c(Cl)c4)C3=O)ccc2O)c(Br)c1 [compound 472]
18 | 55 | COC(=O)c1ccc(NC(=O)c2cc(C=C3SC(=O)N(Cc4ccc(Cl)c(Cl)c4)C3=O)ccc2O)cc1OC [compound 405, 5-{4-hydroxy-3-[3-methoxy-4-(methoxycarbonyl)phenylcarbamoyl]-benzylidene}-3-(3,4-dichlorobenzyl)thiazolidine-2,4-dione]
19 | >99 | O=C(O)c1ccc(NC(=O)c2cccc(C=C3SC(=O)N(Cc4ccc(Cl)c(Cl)c4)C3=O)c2)cc1 [compound 389, 5-[3 (4-Carboxyphenylcarbamoyl)benzylidene]-3-(3,4-dichlorobenzyl)thiazolidine-2,4-dione]
20 | >99 | COc1ccc(Cl)cc1NC(=O)c1cc(C=C2SC(=O)N(Cc3ccc(Cl)c(Cl)c3)C2=O)ccc1O [compound 454]
21 | >99 | COCC1=NN(c2cc(Cl)cc(Cl)c2)C(=O)C1=Cc1cc(C=Cc2ccccc2)ccc1O [compound 524]
22 | 96 | COc1ccc(OC)c(NC(=O)c2cc(C=C3SC(=O)N(Cc4ccc(Cl)c(Cl)c4)C3=O)ccc2O)c1 [compound 471]
23 | >99 | COC(=O)c1ccc(CN2C(=O)SC(=Cc3ccc(O)c(C(=O)Nc4ccc(Cl)c(Cl)c4)c3)C2=O)cc1 [compound 415, 5-[4-hydroxy-3-(3,4-dichlorophenylcarbamoyl)benzylidene]-3-(4-methoxycarbonylbenzyl)thiazolidine-2,4-dione]
24 | 74 | CC(C)C1=NN(c2ccc(C=Cc3ccccn3)cc2)C(=O)C1=Cc1cc(O)c(O)cc1O [compound 545]
25 | >99 | O=C1SC(=Cc2ccc(O)c(-c3c(O)cccc3O)c2)C(=O)N1Cc1ccc(Cl)c(Cl)c1 [compound 449]
26 | >99 | O=C(Nc1cc(C=C2SC(=O)N(Cc3ccc(Cl)c(Cl)c3)C2=O)ccc1O)c1ccc(O)c(O)c1 [compound 380]

Same assay, conditions: test compound 25 μM; Test Method A

Row | Structure (SMILES) | Inhibitory Ratio at 25 μM (%)
27 | CCOC1=NN(c2ccc([N+](=O)[O-])cc2)C(=O)C1=Cc1cc(O)c(O)c(O)c1 [compound 132] | >99
28 | CCOC1=NN(c2ccc([N+](=O)[O-])cc2)C(=O)C1=Cc1cc(O)c(O)cc1O [compound 223] | 88
29 | COC(=O)c1cccc(N2N=C(C(F)(F)F)C(=Cc3ccc(-c4cc(Cl)cc(Cl)c4)s3)C2=O)c1 [compound 181] | 23
30 | O=C1SC(=Cc2ccc(O)c(O)c2)C(=O)N1Cc1cc(F)cc(F)c1 [compound 25] | >99
31 | CC(C)C1=NN(c2cc(C(F)(F)F)cc(C(F)(F)F)c2)C(=O)C1=Cc1ccc(O)c(O)c1 [compound 118, 4-(3,4-Dihydroxybenzylidene)-1-[3,5-bis(trifluoromethyl)phenyl]-3-isopropyl-2-pyrazolin-5-one] | >99
32 | CCOC(=O)C1=NN(c2cccc(C(=O)OCC)c2)C(=O)C1=Cc1ccc2c(c1)OCO2 [compound 196] | 54
33 | O=C1SC(=Cc2ccc(O)c(O)c2)C(=O)N1Cc1cccc(C(F)(F)F)c1 [compound 42] | >99
34 | COC(=O)c1cccc(N2N=C(C(C)C)C(=Cc3ccc4c(c3)OCO4)C2=O)c1 [compound 208] | 47
35 | O=C1C(=Cc2cc(O)c(O)cc2O)C(C(F)(F)F)=NN1c1cc(Cl)cc(Cl)c1 [compound 151] | >99
36 | O=C1SC(=Cc2cccc(O)c2O)C(=O)N1Cc1cc(C(F)(F)F)cc(C(F)(F)F)c1 [compound 70] | >99
37 | COc1cc(OC)c(OC)cc1CN1C(=O)SC(=Cc2cccc(O)c2O)C1=O [compound 15, 5-(2,3-Dihydroxybenzylidene)-3-(2,4,5-trimethoxybenzyl)thiazolidine-2,4-dione] | 93
38 | O=C(O)c1cccc(-c2ccc(C=C3SC(=S)N(c4cccc(F)c4)C3=O)o2)c1 [compound 62] | 36

Results, then the molecule that gave them:

Row | Inhibitory Ratio at 25 μM (%) | Structure (SMILES)
39 | 35 | CC1=NN(c2ccc(Cl)c(C(=O)O)c2)C(=O)C1=Cc1ccc(-c2ccccc2Cl)o1 [compound 188]
40 | >99 | COC(=O)c1cccc(N2N=C(c3ccccc3)C(=Cc3ccc(O)c(O)c3)C2=O)c1 [compound 154, 4-(3,4-Dihydroxybenzylidene)-1-[3-(methoxycarbonyl)phenyl]-3-phenyl-2-pyrazolin-5-one]
41 | 82 | O=C1SC(=Cc2ccc(O)c(O)c2)C(=O)N1Cc1ccc([N+](=O)[O-])cc1 [compound 50, 5-(3,4-Dihydroxybenzylidene)-3-(4-nitrobenzyl)thiazolidine-2,4-dione]
42 | >99 | CC1=NN(c2cc(Cl)cc(Cl)c2)C(=O)C1=Cc1cc(O)c(O)c(O)c1 [compound 143]
43 | >99 | O=C1C(=Cc2ccc(O)c(O)c2)C(c2ccccc2)=NN1c1ccc(Cl)c(Cl)c1 [compound 221]
44 | 94 | CC1=NN(c2ccc([N+](=O)[O-])cc2)C(=O)C1=Cc1cc(O)c(O)c(O)c1 [compound 135]
45 | 85 | O=C1C(=Cc2ccc(Br)o2)C(c2ccccc2)=NN1c1cccc([N+](=O)[O-])c1 [compound 199]
46 | 68 | CC1=NN(c2cccc(C(F)(F)F)c2)C(=O)C1=Cc1ccc(O)c(O)c1 [compound 113]
47 | 84 | COC(=O)c1cccc(N2N=C(c3ccccc3)C(=Cc3ccc(Br)o3)C2=O)c1 [compound 194]
48 | 81 | CC1=NN(c2ccc(Cl)c(C(=O)O)c2)C(=O)C1=Cc1ccc(-c2cccc(Cl)c2C)o1 [compound 190]
49 | >99 | CCOC1=NN(c2ccc([N+](=O)[O-])cc2)C(=O)C1=Cc1ccc(O)c(O)c1 [compound 116]
50 | 37 | Cc1cccc(N2N=C(C(C)C)C(=Cc3cc(O)c(O)c(O)c3)C2=O)c1 [compound 157]
51 | 38 | Cc1cccc(N2N=C(C(C)C)C(=Cc3ccc(O)c(O)c3)C2=O)c1 [compound 125, 4-(3,4-Dihydroxybenzylidene)-1-(3-methylphenyl)-3-isopropyl-2-pyrazolin-5-one]
52 | 53 | CC1=NN(c2ccc(Cl)c(Cl)c2)C(=O)C1=Cc1cc(O)c(O)c(O)c1 [compound 144, 4-(3,4,5-Trihydroxybenzylidene)-1-(3,4-dichlorophenyl)-3-methyl-2-pyrazolin-5-one]
